The results in this text go back to patent US11198687B2, “Heteroaryl allosteric modulators of nicotinic acetylcholine receptors” (Merck Sharp & Dohme Corp., priority 2017, dated 2021).

This assay deals with human α7 nAChR (Homo sapiens, UniProt P36544). The experiment in a line: Automated patch-clamp electrophysiology functional assay (Assay A). Particulars: IonFlux HT whole-cell population patch, HEK cell line stably expressing human RIC-3 and human α7, 40 μM acetylcholine. Format: cell-based. The procedure:
The α7 nAChR positive allosteric modulator (PAM) activity of the present compounds may be tested using assays known in the art. […] The assay was performed using the IonFlux HT in a whole-cell, population patch configuration. See Golden et al. Assay Drug Dev. Technol. (2011) 9:608-619. The compounds were assessed for their ability to modulate the function of the human α7 nAChR stably expressed in a HEK cell line both in the presence, and in the absence of the natural α7 agonist acetylcholine. By performing a series of such measurements at different concentrations, the effective concentration of the α7 nAChR PAMs (EC50) was determined. See Spencer et al. Assay Drug Dev. Technol. (2012) 10:313-324.
Direct activation of α7 (agonism), and potentiation of acetylcholine-evoked α7 currents was determined as follows:
Automated Patch-Clamp Electrophysiology Functional Assay (Assay A)
Automated patch-clamp electrophysiology was performed using the IonFlux HT (Fluxion Biosciences Inc., San Francisco, Calif.) in the whole-cell, population patch configuration. Test compounds were assessed for their ability to modulate the function of the α7 nicotinic acetylcholine receptor both in the presence, and in the absence of the natural α7 agonist acetylcholine. A HEK cell line stably expressing both human RIC-3 and human α7 (PrecisION hnAChR α7/RIC-3, Eurofins Pharma, St. Charles, Mo.) was cultured in 175 cm^2 triple-layer tissue culture flasks to no more than 90% confluency in DMEM/F-12 growth media supplemented with 10% heat-inactivated fetal bovine serum, 1% non-essential amino acids, 0.625 μg/mL Puromycin, and 400 μg/mL Geneticin. Immediately prior to assay, cells were detached by first aspirating growth media, rinsing with Dulbecco's phosphate buffered saline, and then adding 10 mL of Accutase (Innovative Cell Technologies, San Diego, Calif.) to the flask and then incubating at 37° C. for 5 minutes. Detached cells were then recovered by the addition of 40 mL of CHO-serum-free media supplemented with 25 mM HEPES, and rocked gently in a 50 mL conical tube for 20 minutes prior to patch-clamp assay. […] The cell suspension was added to the cell inlet wells on an IonFlux HT population patch plate which had previously been rinsed and primed with deionized H2O. Test compounds were serially diluted in DMSO and then resuspended to the final test concentration in external recording solution, with, or without 40 μM acetylcholine added to the external recording solution; test compounds were then transferred to the lonFlux HT population patch plate. Internal recording solution (110 mM TrisPO4, 28 mM TrisBase, 0.1 mM CaCl2, 2 mM MgCl2, 11 mM EGTA, 4 mM MgATP) was added to the internal recording solution inlet wells on the IonFlux HT patch plate previously loaded with cells and test compounds, and the plate loaded into the IonFlux HT instrument. A protocol was executed on the IonFlux HT to trap the cells, break into the cells, and establish the whole-cell recording configuration; cells were voltage-clamped at a holding potential of −60 mV for the duration of the experiment, all experiments were conducted at room temperature, and the IonFlux HT injection pressure was 8 psi for solution applications. Upon establishing the whole-cell configuration, external recording solution was perfused into the recording chambers for 120 seconds and then 40 μM acetylcholine was applied for 1 second and immediately washed off with external recording solution for 60 seconds. The 40 μM acetylcholine-evoked α7 current served as the current response to which subsequent test compound effects, in the presence, or in the absence of 40 μM acetylcholine would be quantified relative to. Next, test compounds were evaluated at multiple concentrations for their ability to induce, or modulate α7 current responses; three concentrations of test compound were evaluated in ascending dose fashion per recording.

Read-outs that look alike come from different tables or passages of the source.

Chain of human α7 nAChR (P36544 23-502): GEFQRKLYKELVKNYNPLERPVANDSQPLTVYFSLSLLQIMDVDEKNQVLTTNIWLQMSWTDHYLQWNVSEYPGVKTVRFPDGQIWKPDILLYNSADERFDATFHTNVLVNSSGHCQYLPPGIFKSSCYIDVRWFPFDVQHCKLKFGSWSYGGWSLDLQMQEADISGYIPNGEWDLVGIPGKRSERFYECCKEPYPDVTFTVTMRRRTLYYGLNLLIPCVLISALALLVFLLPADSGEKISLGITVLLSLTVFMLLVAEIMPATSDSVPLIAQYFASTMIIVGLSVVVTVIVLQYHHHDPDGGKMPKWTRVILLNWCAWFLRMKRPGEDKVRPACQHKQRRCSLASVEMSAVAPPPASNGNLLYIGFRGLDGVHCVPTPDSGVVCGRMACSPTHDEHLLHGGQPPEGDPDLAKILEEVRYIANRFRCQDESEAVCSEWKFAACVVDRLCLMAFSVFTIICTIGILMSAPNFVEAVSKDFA

For the compound `CC1(C)[C@@H](c2ccc(S(N)(=O)=O)nc2)[C@@H]1c1nc(C2CC(F)(F)C2)no1` [Example B8, 5-{(1S,3S)-3-[3-(3,3-Difluorocyclobutyl)-1,2,4-oxadiazol-5-yl]-2,2-dimethylcyclopropyl}pyridine-2-sulfonamide], under “read-out: α7 nAChR Potency”, the EC50 fell in the range of 0.5 to 5 µM.
With `CC1(C)[C@@H](c2ccc(S(N)(=O)=O)nc2)[C@@H]1c1ncc(C2CCCC2)o1` [Example B14, 5-[(1S,3S)-3-(5-Cyclopentyl-1,3-oxazol-2-yl)-2,2-dimethylcyclopropyl]pyridine-2-sulfonamide], the EC50 (read-out: α7 nAChR EC50) stood at 0.59 µM and the EC50 (read-out: α7 nAChR Potency) lay in the range of 0.5 to 5 µM.
As for `CC1(C)[C@H](c2ccc(S(N)(=O)=O)cn2)[C@H]1c1nc(-c2cccc(F)c2)no1` [Example E1, 6-{(1R,3R)-3-[3-(3-Fluorophenyl)-1,2,4-oxadiazol-5-yl]-2,2-dimethylcyclopropyl}pyridine-3-sulfonamide], the EC50 (read-out: α7 nAChR EC50) is 4 µM and the EC50 (read-out: α7 nAChR Potency) was 0.5 to 5 µM.
The corresponding values for `CC1(C)[C@@H](c2ccc(S(N)(=O)=O)nc2)[C@@H]1c1nc(C2CCCC2)no1` [Example B7, 5-[(1S,3S)-3-(3-Cyclopentyl-1,2,4-oxadiazol-5-yl)-2,2-dimethylcyclopropyl]pyridine-2-sulfonamide] are 0.37 µM and 0.1 to 0.5 µM.
In the case of `CC1(C)[C@@H](c2ccc(S(N)(=O)=O)cn2)[C@@H]1c1nc(C2CCC2)no1` (racemic) [Example G4, 6-[trans-3-(3-Cyclobutyl-1,2,4-oxadiazol-5-yl)-2,2-dimethylcyclopropyl]pyridine-3-sulfonamide], the EC50 (read-out: α7 nAChR Potency) was 0.5 to 5 µM.
As for `CC1(C)[C@H](c2ccc(S(N)(=O)=O)nc2)[C@H]1c1nc(C2CCCC2)no1` [Example A3, 5-[(1R,3R)-3-(3-Cyclopentyl-1,2,4-oxadiazol-5-yl)-2,2-dimethylcyclopropyl]pyridine-2-sulfonamide], the EC50 (read-out: α7 nAChR EC50) is 2.9 µM and the EC50 (read-out: α7 nAChR Potency) lay in the range of 0.5 to 5 µM.
With `COc1ccc(Cl)cc1-c1noc([C@@H]2[C@@H](c3ccc(S(N)(=O)=O)nc3)C2(C)C)n1` [Example A6, 5-{(1R,3R)-3-[3-(5-Chloro-2-methoxyphenyl)-1,2,4-oxadiazol-5-yl]-2,2-dimethylcyclopropyl}pyridine-2-sulfonamide], the EC50 is, setting by setting: (read-out: α7 nAChR EC50) 1.5 µM; (read-out: α7 nAChR Potency) 0.5 to 5 µM.
Take `CC1(C)[C@H](c2ccc(S(N)(=O)=O)cn2)[C@H]1c1nc(-c2ccc(F)cc2F)no1` [Example E5, 6-{(1R,3R)-3-[3-(2,4-Difluorophenyl)-1,2,4-oxadiazol-5-yl]-2,2-dimethylcyclopropyl}pyridine-3-sulfonamide]: the EC50 runs as follows: (read-out: α7 nAChR EC50) 1.3 µM; (read-out: α7 nAChR Potency) 0.5 to 5 µM.
With `COc1ccc(Cl)cc1-c1noc([C@H]2[C@H](c3ncc(S(N)(=O)=O)s3)C2(C)C)n1` (racemic) [Example D7, 2-{trans-3-[3-(5-Chloro-2-methoxyphenyl)-1,2,4-oxadiazol-5-yl]-2,2-dimethylcyclopropyl}-1,3-thiazole-5-sulfonamide], the EC50 was 1.2 µM (read-out: α7 nAChR EC50) and 0.5 to 5 µM (read-out: α7 nAChR Potency).
On to `CC1(C)[C@@H](c2ccc(S(N)(=O)=O)cn2)[C@@H]1c1nc(CC2CC2)no1` [Example F7, 6-{(1S,3S)-3-[3-(Cyclopropylmethyl)-1,2,4-oxadiazol-5-yl]-2,2-dimethylcyclopropyl}pyridine-3-sulfonamide], for which the EC50 runs as follows: (read-out: α7 nAChR EC50) 1.5 µM; (read-out: α7 nAChR Potency) 0.5 to 5 µM.
In the case of `NS(=O)(=O)c1ccc(C2CC2c2nc(-c3ccccc3)no2)cn1` (racemic) [Example C5, 5-[trans-2-(3-Phenyl-1,2,4-oxadiazol-5-yl)cyclopropyl]pyridine-2-sulfonamide], the EC50 is 1.1 µM (read-out: α7 nAChR EC50) and 0.5 to 5 µM (read-out: α7 nAChR Potency).
As to `CC1(C)C(c2ccc(S(N)(=O)=O)nc2)C1c1cc(-c2cccc(F)c2)on1` (single isomer, unassigned) [Example 13, 5-{trans-3-[5-(3-Fluorophenyl)isoxazol-3-yl]-2,2-dimethylcyclopropyl}pyridine-2-sulfonamide], the EC50 is, setting by setting: (read-out: α7 nAChR EC50) 0.77 µM; (read-out: α7 nAChR Potency) 0.5 to 5 µM.
`CC1(C)[C@H](c2ccc(S(N)(=O)=O)cn2)[C@H]1c1nc(-c2ccccc2)no1` [Example E3, 6-[(1R,3R)-2,2-Dimethyl-3-(3-phenyl-1,2,4-oxadiazol-5-yl)cyclopropyl]pyridine-3-sulfonamide]: where the note is “read-out: α7 nAChR Potency”, the EC50 fell in the range of 0.5 to 5 µM.
Regarding `CC1(C)[C@H](c2ccc(S(N)(=O)=O)nc2)[C@H]1c1nc(-c2ccccc2)no1` [Example A1, 5-[(1R,3R)-2,2-Dimethyl-3-(3-phenyl-1,2,4-oxadiazol-5-yl)cyclopropyl]pyridine-2-sulfonamide], the EC50 was 1.5 µM (read-out: α7 nAChR EC50) and 0.5 to 5 µM (read-out: α7 nAChR Potency).
The corresponding values for `CC1(C)[C@@H](c2ccc(S(N)(=O)=O)cn2)[C@@H]1c1nc(-c2cccc(C(F)(F)F)c2)no1` [Example F6, 6-[(1S,3S)-2,2-Dimethyl-3-{3-[3-(trifluoromethyl)phenyl]-1,2,4-oxadiazol-5-yl}cyclopropyl]pyridine-3-sulfonamide] are 2.7 µM and 0.5 to 5 µM.
`CC1(C)[C@@H](c2ccc(S(N)(=O)=O)cn2)[C@@H]1c1nc(C2CCCC2)no1` [Example F3, 6-[(1S,3S)-3-(3-Cyclopentyl-1,2,4-oxadiazol-5-yl)-2,2-dimethylcyclopropyl]pyridine-3-sulfonamide]: the EC50 (read-out: α7 nAChR EC50) was 0.34 µM and the EC50 (read-out: α7 nAChR Potency) lay in the range of 0.1 to 0.5 µM.
In the case of `CC1(C)[C@@H](c2ccc(S(N)(=O)=O)cn2)[C@@H]1c1nc(C2CC(F)(F)C2)no1` [Example F12, 6-{(1S,3S)-3-[3-(3,3-Difluorocyclobutyl)-1,2,4-oxadiazol-5-yl]-2,2-dimethylcyclopropyl}pyridine-3-sulfonamide], the EC50 runs as follows: (read-out: α7 nAChR EC50) 1.9 µM; (read-out: α7 nAChR Potency) 0.5 to 5 µM.
On to `NS(=O)(=O)c1ccc([C@@H]2C[C@H]2c2nc(C3CCCC3)no2)nc1` (racemic) [Example G7, 6-[trans-2-(3-Cyclopentyl-1,2,4-oxadiazol-5-yl)cyclopropyl]pyridine-3-sulfonamide], for which the EC50 (read-out: α7 nAChR EC50) came to 3 µM and the EC50 (read-out: α7 nAChR Potency) is 0.5 to 5 µM.
The corresponding values for `CC(C)c1noc([C@H]2[C@H](c3ncc(S(N)(=O)=O)s3)C2(C)C)n1` (racemic) [Example D5, 2-{trans-2,2-Dimethyl-3-[3-(propan-2-yl)-1,2,4-oxadiazol-5-yl]cyclopropyl}-1,3-thiazole-5-sulfonamide] are 4.2 µM and 0.5 to 5 µM.
As to `CC1(C)[C@H](c2ccc(S(N)(=O)=O)nc2)[C@H]1c1nc(-c2cccc(F)c2)no1` [Example A7, 5-{(1R,3R)-3-[3-(3-Fluorophenyl)-1,2,4-oxadiazol-5-yl]-2,2-dimethylcyclopropyl}pyridine-2-sulfonamide], the EC50 was 0.65 µM (read-out: α7 nAChR EC50) and 0.5 to 5 µM (read-out: α7 nAChR Potency).
On to `CC1(C)C(c2ccc(S(N)(=O)=O)nc2)C1c1nc2ccccc2o1` (racemic) [Example C4, 5-[trans-3-(1,3-Benzoxazol-2-yl)-2,2-dimethylcyclopropyl]pyridine-2-sulfonamide], for which the EC50 is, setting by setting: (read-out: α7 nAChR EC50) 5.1 µM; (read-out: α7 nAChR Potency) 5 to 50 µM.
With `CC1(C)[C@H](c2ccc(S(N)(=O)=O)nc2)[C@H]1c1ncc(C2CCCC2)s1` [Example 9, 5-[(1R,3R)-3-(5-Cyclopentyl-1,3-thiazol-2-yl)-2,2-dimethylcyclopropyl]pyridine-2-sulfonamide], the EC50 (read-out: α7 nAChR EC50) worked out at 0.72 µM and the EC50 (read-out: α7 nAChR Potency) fell in the range of 0.5 to 5 µM.
